Source: ChEMBL document CHEMBL1275333, “Identification of non-peptide malignant brain tumor (MBT) repeat antagonists by virtual screening of commercially available compounds” (J Med Chem, 2010)

Legend:
[1] = biological target: T1, Lethal(3)malignant brain tumor-like protein 1 (Homo sapiens, UniProt Q9Y468); experiment: Inhibition of L3MBTL1 by alpha-screening
T1 sequence (Q9Y468 whole entry): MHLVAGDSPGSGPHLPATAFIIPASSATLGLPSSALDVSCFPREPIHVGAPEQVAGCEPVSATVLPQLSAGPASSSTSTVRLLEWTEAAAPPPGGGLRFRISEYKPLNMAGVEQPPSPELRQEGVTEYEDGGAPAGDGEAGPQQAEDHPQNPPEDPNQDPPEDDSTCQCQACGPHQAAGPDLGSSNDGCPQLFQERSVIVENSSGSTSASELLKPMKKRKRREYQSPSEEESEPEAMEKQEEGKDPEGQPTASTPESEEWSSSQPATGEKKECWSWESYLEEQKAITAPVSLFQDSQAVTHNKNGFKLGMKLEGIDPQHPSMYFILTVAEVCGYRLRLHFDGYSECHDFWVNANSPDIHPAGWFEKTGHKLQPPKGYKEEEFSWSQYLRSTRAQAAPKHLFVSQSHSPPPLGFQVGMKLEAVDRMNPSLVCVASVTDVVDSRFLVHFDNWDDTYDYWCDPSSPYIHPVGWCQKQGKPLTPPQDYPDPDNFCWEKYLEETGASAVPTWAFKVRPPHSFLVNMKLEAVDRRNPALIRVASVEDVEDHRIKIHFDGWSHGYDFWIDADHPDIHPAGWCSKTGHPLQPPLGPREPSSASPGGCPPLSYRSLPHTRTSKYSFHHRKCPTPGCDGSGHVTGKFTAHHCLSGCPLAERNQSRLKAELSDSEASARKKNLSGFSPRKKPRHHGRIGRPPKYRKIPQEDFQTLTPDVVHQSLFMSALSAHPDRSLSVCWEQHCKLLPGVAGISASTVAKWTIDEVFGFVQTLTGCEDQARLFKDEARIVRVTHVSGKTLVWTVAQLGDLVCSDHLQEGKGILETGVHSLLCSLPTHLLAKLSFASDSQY

[2] = biological target: T2, Lethal(3)malignant brain tumor-like protein 3 (Homo sapiens, UniProt Q96JM7); experiment: Inhibition of L3MBTL3 by alpha-screening
T2 sequence (Q96JM7 whole entry): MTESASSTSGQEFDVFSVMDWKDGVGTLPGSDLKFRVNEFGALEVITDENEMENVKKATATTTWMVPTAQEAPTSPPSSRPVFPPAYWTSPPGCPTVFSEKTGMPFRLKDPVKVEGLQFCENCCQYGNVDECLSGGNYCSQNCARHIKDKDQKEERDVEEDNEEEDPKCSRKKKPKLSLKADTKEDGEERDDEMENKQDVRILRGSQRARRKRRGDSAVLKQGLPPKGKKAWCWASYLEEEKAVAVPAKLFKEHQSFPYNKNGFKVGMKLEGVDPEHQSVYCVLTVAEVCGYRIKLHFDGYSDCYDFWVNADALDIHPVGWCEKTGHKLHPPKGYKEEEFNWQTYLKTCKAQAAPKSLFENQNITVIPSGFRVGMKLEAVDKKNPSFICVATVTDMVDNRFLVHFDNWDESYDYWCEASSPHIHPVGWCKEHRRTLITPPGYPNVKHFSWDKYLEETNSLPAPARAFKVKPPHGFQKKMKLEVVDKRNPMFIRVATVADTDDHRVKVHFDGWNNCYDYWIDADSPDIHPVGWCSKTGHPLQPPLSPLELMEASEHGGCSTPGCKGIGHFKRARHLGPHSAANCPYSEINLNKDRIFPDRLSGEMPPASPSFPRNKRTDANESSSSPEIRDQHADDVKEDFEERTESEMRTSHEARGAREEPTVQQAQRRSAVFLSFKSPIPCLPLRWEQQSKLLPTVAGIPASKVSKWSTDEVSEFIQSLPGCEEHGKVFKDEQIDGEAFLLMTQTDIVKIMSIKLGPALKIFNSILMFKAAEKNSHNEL

[3] = AlphaScreen counterscreen signal interference at 100 uM
[4] = biological target: MBT domain-containing protein 1 (Homo sapiens, UniProt Q05BQ5); experiment: Inhibition of MBTD1 by alpha-screening
[5] = biological target: T3, Lethal(3)malignant brain tumor-like protein 4 (Homo sapiens, UniProt Q8NA19); experiment: Inhibition of L3MBTL4 by alpha-screening
T3 sequence (Q8NA19 whole entry): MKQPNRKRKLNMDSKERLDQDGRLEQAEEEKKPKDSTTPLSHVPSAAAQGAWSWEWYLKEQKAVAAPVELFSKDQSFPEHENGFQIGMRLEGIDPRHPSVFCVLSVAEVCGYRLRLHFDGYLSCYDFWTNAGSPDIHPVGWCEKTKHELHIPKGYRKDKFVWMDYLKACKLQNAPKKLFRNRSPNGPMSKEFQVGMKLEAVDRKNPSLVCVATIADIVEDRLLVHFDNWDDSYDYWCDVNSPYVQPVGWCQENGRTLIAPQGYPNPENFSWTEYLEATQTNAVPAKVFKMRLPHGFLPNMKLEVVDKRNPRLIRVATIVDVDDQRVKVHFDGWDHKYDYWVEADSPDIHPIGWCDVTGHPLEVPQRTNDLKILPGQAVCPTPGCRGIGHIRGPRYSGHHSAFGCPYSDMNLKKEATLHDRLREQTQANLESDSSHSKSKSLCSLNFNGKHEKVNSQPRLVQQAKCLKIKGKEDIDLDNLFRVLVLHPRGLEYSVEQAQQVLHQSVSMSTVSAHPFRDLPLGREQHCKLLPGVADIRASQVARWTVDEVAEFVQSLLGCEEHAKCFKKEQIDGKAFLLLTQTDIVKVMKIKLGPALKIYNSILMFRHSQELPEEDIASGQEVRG

Chain of MBT domain-containing protein 1 (Q05BQ5 whole entry, the tested form may be a part): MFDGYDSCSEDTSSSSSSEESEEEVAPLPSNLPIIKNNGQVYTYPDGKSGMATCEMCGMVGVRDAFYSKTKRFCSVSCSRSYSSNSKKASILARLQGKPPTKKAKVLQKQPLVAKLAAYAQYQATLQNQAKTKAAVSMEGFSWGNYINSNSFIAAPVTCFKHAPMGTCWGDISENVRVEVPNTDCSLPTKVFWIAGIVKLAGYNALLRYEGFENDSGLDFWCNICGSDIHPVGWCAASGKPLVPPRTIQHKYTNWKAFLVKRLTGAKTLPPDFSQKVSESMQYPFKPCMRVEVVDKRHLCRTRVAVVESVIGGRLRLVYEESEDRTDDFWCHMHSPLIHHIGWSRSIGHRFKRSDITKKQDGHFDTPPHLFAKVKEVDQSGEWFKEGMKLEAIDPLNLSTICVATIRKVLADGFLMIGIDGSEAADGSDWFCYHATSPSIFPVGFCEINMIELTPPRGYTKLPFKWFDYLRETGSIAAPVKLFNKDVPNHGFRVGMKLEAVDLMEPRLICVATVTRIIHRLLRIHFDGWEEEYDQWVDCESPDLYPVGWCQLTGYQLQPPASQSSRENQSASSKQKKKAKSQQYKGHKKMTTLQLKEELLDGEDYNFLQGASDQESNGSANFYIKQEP

Activity [3] [%] | IC50 [4] [µM] | Compound | IC50 [1] [µM] | IC50 [2] [µM] | IC50 [5] [µM]
– | > 100 | CCc1cc(OCCCCNC)ccc1Cl | 96 | – | > 100
3 | > 100 | CNCCCC(C#N)(c1ccccc1C)C(C)C (stereo unspecified) | 18 | > 100 | > 100
– | 34 | CN(C)CCC(c1ccc(Cl)cc1)c1ccccn1 (stereo unspecified) [CHLORPHENIRAMINE] | – | – | –
22 | 66 | CC(CCN(C)C)OC(=O)c1ccc(C(C)c2ccccc2)o1 (stereo unspecified) | 84 | 75 | > 100
8 | > 100 | CNCCCCOc1ccc(Cc2ccccc2)cc1 | 91 | > 100 | > 100
– | > 100 | CNCCC1OC(c2ccc(Cl)cc2)Cc2ccccc21 (stereo unspecified) | – | – | 78
30 | > 100 | CNCCCCOc1ccc(C)cc1OC | > 100 | 84 | 92
5 | > 100 | CNCCCCc1ccccc1 | 68 | > 100 | > 100
– | > 100 | CNCCCC1Sc2ccccc2Oc2ccccc21 (stereo unspecified) | 14 | – | > 100

The remaining lines, values behind:

Compound | Activity [3] [%] | IC50 [4] [µM] | IC50 [1] [µM] | IC50 [2] [µM] | IC50 [5] [µM]
Cc1ncc(CCCCN(C)C)c2c1[nH]c1ccccc12 | 15 | 73 | 21 | 5.7 | > 100
CN(C)CCCNC(=O)C1(O)c2cc(Br)ccc2NC(=O)N1c1ccc(Cl)cc1 (stereo unspecified) | 3 | 37 | 52 | – | > 100
CCN(CC)CC#CCOC(=O)C(O)(c1ccccc1)C1CCCCC1 (stereo unspecified) [OXYBUTYNIN] | – | > 100 | > 100 | – | > 100
Cc1ccc(S(=O)(=O)NCCCN2CCCC2)cc1 | – | 59 | 17 | – | > 100
CCN(CC)CCCNS(=O)(=O)c1cc(OC)ccc1OC | -6 | > 100 | > 100 | 48 | > 100
CCN(CC)CCCNS(=O)(=O)c1ccc(F)c(Cl)c1 | 8 | > 100 | > 100 | – | > 100
CNCC1CCN(CCc2ccc(Cl)cc2)CC1 | – | > 100 | 69 | – | > 100
CN(C)CCC(=O)c1cc2c(cc1Br)OCCCO2 | 35 | > 100 | > 100 | > 100 | 12
